SMILES strings stand for the structures.

In experiment [1] the test system is KM12 cells. Description: Caspase activity assay. The format is cell-based. The following applies: 72 hours, caspase3 glo / PARP immunoblot. As for the experimental part:
KM12 cells were maintained in DMEM medium supplemented with 10% fetal bovine serum and antibiotics. 500,000 cells were seeded in 12-well plate and various concentration of compounds were introduced for 72 hours For staurosporine treatment, 500 nM of STS were added at time of 60 hours and incubation of 12 hours as a positive control. All the cells were collected and washed with 1×PBS twice and then lysed in a lysis buffer (20 mM HEPES, 150 mM NaCl, 10 mM KCl, 5 mM EDTA, 1% NP40) supplemented with Halt protease and phosphatase inhibitors (Thermo Scientific). For caspase assays, around 20 μL (20 μg) of cell lysate were incubated with 20 μL, of caspase3 glo reagent (Promega), measuring enzyme activity by the release of luminescence after 20 min incubation at 37° C. For western blotting, cell lysates were boiled and analyzed by SDS-PAGE/immunoblotting using PARP, or actin antibodies.
Background: Immunoblotting shows a protein as a band on a membrane.

Experiment [2] relates to Ba/F3-EML4-ALK wild type cell line. The experiment is described as follows: EML4-ALK Ba/F3 cell proliferation assay. The format is cell-based. The following applies: 48 hours incubation, read-out: EML4-ALK Ba/F3 cell proli. IC50. As for the experimental part:
The EML4-ALK wild-type gene (variant 1) was synthesized at GenScript and cloned into pCDH-CMV-MCS-EF1-Puro plasmid (System Biosciences, Inc). Ba/F3-EML4-ALK wild type cell line was generated by infecting Ba/F3 cells with lentivirus containing EML4-ALK wide-type. Stable cell lines were selected by puromycin treatment, followed by IL-3 withdrawal. 5000 cells were seeded in 384 well white plate overnight before compound treatment. Cell proliferation was measured using CellTiter-Glo luciferase-based ATP detection assay (Promega) following the manufactures's protocol after 48 hours of various concentration of compound incubation. IC50 determinations were performed using GraphPad Prism software (GraphPad, Inc., San Diego, Calif.).

As to `CN1Cc2cc(F)ccc2OCCNC(=O)c2cnn3ccc1nc23` [Example 20, 11-fluoro-14-methyl-6,7,13,14-tetrahydro-1,15-ethenopyrazolo[4,3-f][1,4,8,10]benzoxatriazacyclo-tridecin-4(5H)-one], the “apoptosis of KM 12 cells” value in experiment [1] is “induced apoptosis”.
In the case of `C[C@H]1Nc2ccn3ncc(c3n2)C(=O)NCCOc2ccc(F)cc21` [Example 51-1, (13R)-11-fluoro-13-methyl-6,7,13,14-tetrahydro-1,15-ethenopyrazolo[4,3-f][1,4,8,10]benzoxatriazacyclotridecin-4(5H)-one], the IC50 in experiment [2] was 248 nM.
Turning to `C[C@@H]1CNC(=O)c2cnn3ccc(nc23)N[C@H](C)c2cc(F)ccc2O1` [Example 92, (7R,13R)-11-fluoro-7,13-dimethyl-6,7,13,14-tetrahydro-1,15-ethenopyrazolo[4,3-f][1,4,8,10]benzoxatriazacyclotridecin-4(5H)-one], in experiment [2], the IC50 was found to be 78.6 nM.
Turning to `C[C@H]1CNC(=O)c2cnn3ccc(nc23)N[C@H](C)c2cc(F)ccc2O1` [Example 93, (7S,13R)-11-fluoro-7,13-dimethyl-6,7,13,14-tetrahydro-1,15-ethenopyrazolo[4,3-f][1,4,8,10]benzoxatriazacyclotridecin-4(5H)-one], the IC50 in experiment [2] amounted to 21.1 nM.

The values are drawn from US10618912B2, “Diaryl macrocycles as modulators of protein kinases” (Turning Point Therapeutics, Inc., priority 2014, dated 2020).
